From PubChem BioAssay AID252 (DTP/NCI, 2004)
Several values for one entry are separate records, joined by “and”; a condition that tells them apart may be missing. Equal entries are not always repeated. Inconclusive results and toxic doses are left out.

Test system: BDF1 mice, intracerebral L1210 leukemia, survival T/C
Test: NCI In Vivo Anticancer Drug Screen. Data for tumor model L1210 Leukemia (intracerebral) in B6D2F1 (BDF1) mice
Details: higher = longer survival
Protocol: The antitumor activity of compounds was measured in mice bearing transplantable tumors. Survival or tumor size were measured and the results are expressed as the measurement made in the treated group (T) divided by the measurement made in the vehicle treated control group (C). The tumor model used in this assay is L1210 Leukemia (intracerebral) in B6D2F1 (BDF1) mice

[1] = endpoint: mean survival time, dose: 22.0 mg/kg/injection, schedule: Q01DX001 (ip), vehicle: other

For `O=C(O)CCCc1ccc(N(CCCl)CCCl)cc1`, the T/C (endpoint: mean survival time, dose: 18.0 mg/kg/injection, schedule: Q01DX001 (ip), vehicle: carboxymethylcellulose (CMC)) was 105 % of control, the T/C (endpoint: mean survival time, dose: 27.0 mg/kg/injection, schedule: Q01DX001 (ip), vehicle: carboxymethylcellulose (CMC)) was 112 % of control and the T/C (endpoint: mean survival time, dose: 41.0 mg/kg/injection, schedule: Q01DX001 (ip), vehicle: carboxymethylcellulose (CMC)) was 112 % of control.

`CCN(CC)CCNc1ccc(CO)c2sc3ccccc3c(=O)c12` was tested, and the T/C (endpoint: mean survival time, dose: 1.0 mg/kg/injection, schedule: Q01DX005 (ip), vehicle: saline) was 97 % of control, the T/C (endpoint: mean survival time, dose: 2.0 mg/kg/injection, schedule: Q01DX005 (ip), vehicle: saline) was 96 % of control and the T/C (endpoint: mean survival time, dose: 4.0 mg/kg/injection, schedule: Q01DX005 (ip), vehicle: saline) was 100 % of control. The T/C (endpoint: mean survival time, dose: 8.0 mg/kg/injection, schedule: Q01DX005 (ip), vehicle: saline) was 98 % of control, the T/C (endpoint: mean survival time, dose: 16.0 mg/kg/injection, schedule: Q01DX005 (ip), vehicle: saline) was 100 % of control and the T/C (endpoint: mean survival time, dose: 32.0 mg/kg/injection, schedule: Q01DX005 (ip), vehicle: saline) was 107 % of control. For the same compound, the T/C (endpoint: mean survival time, dose: 64.0 mg/kg/injection, schedule: Q01DX005 (ip), vehicle: saline) was 123 % of control.

With `CCNC1=C(N2CC2)C(=O)C(NCC)=C(N2CC2)C1=O` the T/C (endpoint: mean survival time, dose: 0.37 mg/kg/injection, schedule: Q01DX009 (ip), vehicle: saline) was 101 % of control and 100 % of control, the T/C (endpoint: mean survival time, dose: 0.75 mg/kg/injection, schedule: Q01DX009 (ip), vehicle: saline) was 104 % of control and 117 % of control and the T/C (endpoint: mean survival time, dose: 1.5 mg/kg/injection, schedule: Q01DX009 (ip), vehicle: saline) was 124 % of control.

`O=NN(CCCl)C(=O)N[C@@H]1CCCC[C@H]1NC(=O)N(CCCl)N=O` was tested, and the T/C (endpoint: mean survival time, dose: 67.0 mg/kg/injection, schedule: Q01DX001 (ip), vehicle: carboxymethylcellulose (CMC)) was 118 % of control, the T/C (endpoint: mean survival time, dose: 72.0 mg/kg/injection, schedule: Q01DX001 (ip), vehicle: carboxymethylcellulose (CMC)) was 124 % of control and the T/C (endpoint: mean survival time, dose: 100.0 mg/kg/injection, schedule: Q01DX001 (ip), vehicle: carboxymethylcellulose (CMC)) was 124 % of control. For the same compound, the T/C (endpoint: mean survival time, dose: 150.0 mg/kg/injection, schedule: Q01DX001 (ip), vehicle: carboxymethylcellulose (CMC)) was 162 % of control and the T/C (endpoint: mean survival time, dose: 240.0 mg/kg/injection, schedule: Q01DX001 (ip), vehicle: carboxymethylcellulose (CMC)) was 166 % of control.

With `CCNC(=O)N(CC)N=O` the T/C (endpoint: mean survival time, dose: 222.0 mg/kg/injection, schedule: Q01DX001 (ip), vehicle: saline) was 100 % of control, the T/C (endpoint: mean survival time, dose: 333.0 mg/kg/injection, schedule: Q01DX001 (ip), vehicle: saline) was 110 % of control and the T/C (endpoint: mean survival time, dose: 500.0 mg/kg/injection, schedule: Q01DX001 (ip), vehicle: saline) was 123 % of control.

In the case of `c1nc(SSc2ncnc3nc[nH]c23)c2[nH]cnc2n1`, the T/C (endpoint: mean survival time, dose: 75.0 mg/kg/injection, schedule: Q04DX003 (ip), vehicle: Klucel (hydroxypropylcellulose) (HPC)) was 108 % of control.

In the case of `O=NN(CCCl)C(=O)NC1C2CC3CC(C2)CC1C3` (stereo unspecified), the T/C [1] was 109 % of control and 119 % of control, the T/C (endpoint: mean survival time, dose: 45.0 mg/kg/injection, schedule: Q01DX001 (ip), vehicle: other) was 175 % of control and 231 % of control and the T/C (endpoint: mean survival time, dose: 91.0 mg/kg/injection, schedule: Q01DX001 (ip), vehicle: other) was 340 % of control and 376 % of control. For the same compound, the T/C (endpoint: mean survival time, dose: 144.0 mg/kg/injection, schedule: Q01DX001 (ip), vehicle: other) was 153 % of control, the T/C (endpoint: mean survival time, dose: 181.0 mg/kg/injection, schedule: Q01DX001 (ip), vehicle: other) was 250 % of control and 335 % of control and the T/C (endpoint: mean survival time, dose: 215.0 mg/kg/injection, schedule: Q01DX001 (ip), vehicle: other) was 238 % of control. The T/C (endpoint: mean survival time, dose: 322.0 mg/kg/injection, schedule: Q01DX001 (ip), vehicle: other) was 217 % of control and the T/C (endpoint: mean survival time, dose: 362.0 mg/kg/injection, schedule: Q01DX001 (ip), vehicle: other) was 103 % of control.

For `CC(=O)OCC1OC(n2cnc3c(=S)nc(N)[nH]c32)C(OC(C)=O)C1OC(C)=O` (stereo unspecified), the T/C (endpoint: mean survival time, dose: 37.5 mg/kg/injection, schedule: Q01DX Z (ip), vehicle: other) was 122 % of control.

With `C[C@H]1CN1C1=CC(=O)C(N2C[C@@H]2C)=CC1=O` the T/C (endpoint: mean survival time, dose: 8.0 mg/kg/injection, schedule: Q01DX009 (ip), vehicle: saline) was 90 % of control.

With `O=NN(CCCl)C(=O)NC1CSCSC1` the T/C (endpoint: mean survival time, dose: 2.0 mg/kg/injection, schedule: Q01DX001 (ip), vehicle: other) was 103 % of control and 98 % of control, the T/C (endpoint: mean survival time, dose: 15.0 mg/kg/injection, schedule: Q01DX001 (ip), vehicle: other) was 153 % of control and 196 % of control and the T/C [1] was 360 % of control and 379 % of control. The T/C (endpoint: mean survival time, dose: 50.0 mg/kg/injection, schedule: Q01DX001 (ip), vehicle: other) was 89 % of control.

In the case of `CCn1cnc2c(SC(C)C)ncnc21`, the T/C (endpoint: mean survival time, dose: 16.0 mg/kg/injection, schedule: Q01DX Z (ip), vehicle: carboxymethylcellulose (CMC)) was 100 % of control, the T/C (endpoint: mean survival time, dose: 31.0 mg/kg/injection, schedule: Q01DX Z (ip), vehicle: carboxymethylcellulose (CMC)) was 109 % of control and the T/C (endpoint: mean survival time, dose: 62.0 mg/kg/injection, schedule: Q01DX Z (ip), vehicle: carboxymethylcellulose (CMC)) was 110 % of control.

For `C[C@]12C=CC(=O)C=C1CC[C@@H]1[C@@H]2C(=O)C[C@@]2(C)[C@H]1CC[C@]2(O)C(=O)CO`, the T/C (endpoint: mean survival time, dose: 100.0 mg/kg/injection, schedule: Q01DX Z (sc), vehicle: steriod suspending solution) was 97 % of control, the T/C (endpoint: mean survival time, dose: 120.0 mg/kg/injection, schedule: Q01DX001 (sc), vehicle: steriod suspending solution) was 102 % of control and the T/C (endpoint: mean survival time, dose: 180.0 mg/kg/injection, schedule: Q01DX001 (sc), vehicle: steriod suspending solution) was 103 % of control. The T/C (endpoint: mean survival time, dose: 200.0 mg/kg/injection, schedule: Q01DX Z (sc), vehicle: steriod suspending solution) was 109 % of control, the T/C (endpoint: mean survival time, dose: 240.0 mg/kg/injection, schedule: Q01DX001 (sc), vehicle: steriod suspending solution) was 103 % of control and the T/C (endpoint: mean survival time, dose: 250.0 mg/kg/injection, schedule: Q01DX Z (sc), vehicle: steriod suspending solution) was 112 % of control. The T/C (endpoint: mean survival time, dose: 375.0 mg/kg/injection, schedule: Q01DX Z (sc), vehicle: steriod suspending solution) was 102 % of control, the T/C (endpoint: mean survival time, dose: 500.0 mg/kg/injection, schedule: Q01DX Z (sc), vehicle: steriod suspending solution) was 97 % of control and the T/C (endpoint: mean survival time, dose: 750.0 mg/kg/injection, schedule: Q01DX Z (sc), vehicle: steriod suspending solution) was 112 % of control.

`COc1cccnc1/C=N/NC(N)=S` was tested, and the T/C (endpoint: median survival time, dose: 1.5 mg/kg/injection, schedule: Q01DX009 (ip), vehicle: saline with Tween-80) was 101 % of control, the T/C (endpoint: median survival time, dose: 3.0 mg/kg/injection, schedule: Q01DX009 (ip), vehicle: saline with Tween-80) was 103 % of control and the T/C (endpoint: median survival time, dose: 6.0 mg/kg/injection, schedule: Q01DX009 (ip), vehicle: saline with Tween-80) was 110 % of control. The T/C (endpoint: median survival time, dose: 12.0 mg/kg/injection, schedule: Q01DX009 (ip), vehicle: saline with Tween-80) was 153 % of control.

`O=NN(CCCl)C(=O)Nc1ccccc1Cl` was tested, and the T/C (endpoint: mean survival time, dose: 22.0 mg/kg/injection, schedule: Q01DX001 (ip), vehicle: carboxymethylcellulose (CMC)) was 100 % of control, the T/C (endpoint: mean survival time, dose: 33.0 mg/kg/injection, schedule: Q01DX001 (ip), vehicle: carboxymethylcellulose (CMC)) was 89 % of control and the T/C (endpoint: mean survival time, dose: 50.0 mg/kg/injection, schedule: Q01DX001 (ip), vehicle: carboxymethylcellulose (CMC)) was 100 % of control.

For `CCS(=O)(=O)Nc1cccc(Nc2c3cccc(C)c3nc3c(C)cccc23)c1OC`, the T/C (endpoint: mean survival time, dose: 12.5 mg/kg/injection, schedule: Q01DX009 (ip), vehicle: water) was 117 % of control, the T/C (endpoint: mean survival time, dose: 12.5 mg/kg/injection, schedule: Q01DX009 (sc), vehicle: water) was 105 % of control and the T/C (endpoint: mean survival time, dose: 25.0 mg/kg/injection, schedule: Q01DX009 (ip), vehicle: water) was 92 % of control. For the same compound, the T/C (endpoint: mean survival time, dose: 25.0 mg/kg/injection, schedule: Q01DX009 (sc), vehicle: water) was 118 % of control, the T/C (endpoint: mean survival time, dose: 50.0 mg/kg/injection, schedule: Q01DX009 (sc), vehicle: water) was 113 % of control and the T/C (endpoint: mean survival time, dose: 100.0 mg/kg/injection, schedule: Q01DX009 (sc), vehicle: water) was 104 % of control.
